The data set is classed as physicochemical. To be noted: for Stability in aqueous solution (MS, time course): DMSO solution diluted 1 to 1000 in water, followed over 24 h.

On to `CC(C)C[C@H](NC(=O)OCc1ccccc1)C(=O)N[C@H](C=O)CC1CCNC1=O` (stereo partly drawn) [Compound 6a], for which the “Stability in aqueous solution (MS, time course)” value is “the hydrated form was the dominant species after only five minutes exposure to water”.
`CC(C)C[C@H](NC(=O)OCc1ccccc1)C(=O)N[C@@H](CC1CCNC1=O)C(O)S(=O)(=O)[O-].[Na+]` (stereo partly drawn) [Compound 7a]: the “Stability in aqueous solution (MS, time course)” value was “remains unchanged as the bisulfite form after 24 h”. Also, under “buffer solution, pH 7.4”, the “Stability in buffer solution” value is recorded as “gradually dissociates into the corresponding aldehyde 6a within an hour”.

The values above are taken from publication PMC3586229 (Bioorganic & medicinal chemistry letters, 2012).
